This passage reports MIC results from ChEMBL document CHEMBL5126592, “Design, synthesis and activity against drug-resistant bacteria evaluation of C-20, C-23 modified 5-O-mycaminosyltylonolide derivatives” (Eur J Med Chem, 2022).

Holding throughout (format): functional
What all share (settings): time 16-20 hrs

Assay [1] deals with Escherichia coli. As to the kind of experiment: Antibacterial activity against Escherichia coli ATCC 25922 incubated for 16 to 20 hrs by broth microdilution method. Background: Dilution methods test growth across graded concentrations, often in twofold steps.
Assay [2] relates to Klebsiella pneumoniae. As to the kind of experiment: Antibacterial activity against Klebsiella pneumoniae ATCC 13883 incubated for 16 to 20 hrs by broth microdilution method.
For assay [3], the system named is Enterococcus faecium. As to the kind of experiment: Antibacterial activity against Enterococcus faecium incubated for 16 to 20 hrs by broth microdilution method.
The test system of assay [4] is Staphylococcus chromogenes. Briefly: Antibacterial activity against Staphylococcus chromogenes incubated for 16 to 20 hrs by broth microdilution method.
For assay [5], the system named is Staphylococcus aureus. As to the kind of experiment: Antibacterial activity against Staphylococcus aureus ATCC 25923 incubated for 16 to 20 hrs by broth microdilution method.
Assay [6] relates to Streptococcus dysgalactiae. As to the kind of experiment: Antibacterial activity against Streptococcus dysgalactiae incubated for 16 to 20 hrs by broth microdilution method.
For assay [7], the system named is Cronobacter sakazakii. Briefly: Antibacterial activity against Cronobacter sakazakii ATCC 29544 incubated for 16 to 20 hrs by broth microdilution method.
For assay [8], the system named is Escherichia coli. Briefly: Antibacterial activity against Escherichia coli incubated for 16 to 20 hrs by broth microdilution method.
For assay [9], the system named is Pseudomonas aeruginosa. As to the kind of experiment: Antibacterial activity against Pseudomonas aeruginosa LTP-3 incubated for 16 to 20 hrs by broth microdilution method.
Assay [10] relates to Staphylococcus aureus. Briefly: Antibacterial activity against Staphylococcus aureus incubated for 16 to 20 hrs by broth microdilution method.

≈ marks a conversion by molar mass, not a printed value.

By MIC is commonly meant the smallest concentration in the dilution series that meets the test's criterion for growth inhibition. A high value points to a less susceptible organism. On to `CN[C@H](CC(C)C)C(=O)N[C@H]1C(=O)N[C@@H](CC(N)=O)C(=O)N[C@H]2C(=O)N[C@H]3C(=O)N[C@H](C(=O)N[C@H](C(=O)O)c4cc(O)cc(O)c4-c4cc3ccc4O)[C@H](O)c3ccc(c(Cl)c3)Oc3cc2cc(c3O[C@@H]2O[C@H](CO)[C@@H](O)[C@H](O)[C@H]2O[C@H]2C[C@](C)(N)[C@H](O)[C@H](C)O2)Oc2ccc(cc2Cl)[C@H]1O` [VANCOMYCIN], for which the MIC came out at 32 µg/mL (≈ 22.1 µM) in assay [1]; 32 µg/mL (≈ 22.1 µM) in assay [2]; 16 µg/mL (≈ 11 µM) in assay [3]; 8 µg/mL (≈ 5.52 µM) in assay [4]; 0.25 µg/mL (≈ 0.173 µM) in assay [5]; 16 µg/mL (≈ 11 µM) in assay [6]. Further, the minimum inhibitory concentration (MIC) in assay [7] was 32 µg/mL (≈ 22.1 µM); in assay [8], above 32 µg/mL; in assay [9], 32 µg/mL (≈ 22.1 µM).

As to `CCCN1C[C@H](C)[C@@H](O)[C@](C)(O)[C@@H](CC)OC(=O)[C@H](C)[C@@H](O[C@H]2C[C@](C)(OC)[C@H](O)[C@@H](C)O2)[C@H](C)[C@@H](O[C@@H]2O[C@H](C)C[C@H](N(C)C)[C@H]2O)[C@](C)(O)C[C@H]1C`, the minimal inhibitory concentration (MIC) in assay [1] was determined as 16 µg/mL (≈ 20.6 µM); in assay [2] it was 16 µg/mL (≈ 20.6 µM); in assay [3], 32 µg/mL (≈ 41.2 µM); in assay [4], 8 µg/mL (≈ 10.3 µM); in [5], 4 µg/mL (≈ 5.15 µM); in [6], 32 µg/mL (≈ 41.2 µM). Further, the MIC in assay [7] stood at 16 µg/mL (≈ 20.6 µM); in assay [8], 16 µg/mL (≈ 20.6 µM); in assay [10], 8 µg/mL (≈ 10.3 µM); in assay [9] it was 32 µg/mL (≈ 41.2 µM).

For the compound `CC[C@H]1OC(=O)C[C@@H](O)[C@H](C)[C@@H](O[C@@H]2O[C@H](C)[C@@H](O)[C@H](N(C)C)[C@H]2O)[C@@H](CCN(Cc2ccc(C(F)(F)F)cc2)Cc2cn(-c3cnc4ccccc4c3)nn2)C[C@@H](C)C(=O)/C=C/C(C)=C/[C@@H]1CN1CCCCCCC1`, the MIC in assay [1] is 4 µg/mL (≈ 3.77 µM); in [2], 8 µg/mL (≈ 7.54 µM); in assay [5] it was 1 µg/mL (≈ 0.943 µM); in assay [7] it was 32 µg/mL (≈ 30.2 µM).

On to `CC[C@H]1OC(=O)C[C@@H](O)[C@H](C)[C@@H](O[C@@H]2O[C@H](C)[C@@H](O)[C@H](N(C)C)[C@H]2O)[C@@H](CCN(Cc2ccccc2)Cc2cn(-c3cnc4ccccc4c3)nn2)C[C@@H](C)C(=O)/C=C/C(C)=C/[C@@H]1CN1CCCCCC1`, for which the MIC amounted to 4 µg/mL (≈ 4.09 µM) in [1], 4 µg/mL (≈ 4.09 µM) in assay [2], 1 µg/mL (≈ 1.02 µM) in [5] and 8 µg/mL (≈ 8.18 µM) in assay [7].

On to `CC[C@H]1OC(=O)C[C@@H](O)[C@H](C)[C@@H](O[C@@H]2O[C@H](C)[C@@H](O)[C@H](N(C)C)[C@H]2O)[C@@H](CCN(Cc2ccc(OC)cc2)Cc2cn(-c3cnc4ccccc4c3)nn2)C[C@@H](C)C(=O)/C=C/C(C)=C/[C@@H]1CN1CC(C)CC(C)C1` (stereo partly drawn), for which the minimal inhibitory concentration (MIC) in [1] came out at 16 µg/mL (≈ 15.7 µM); in assay [2] it was 16 µg/mL (≈ 15.7 µM); in [5], 2 µg/mL (≈ 1.96 µM); in assay [7] it was 32 µg/mL (≈ 31.3 µM).

As for `CC[C@H]1OC(=O)C[C@@H](O)[C@H](C)[C@@H](O[C@@H]2O[C@H](C)[C@@H](O)[C@H](N(C)C)[C@H]2O)[C@@H](CCN(Cc2ccccc2)Cc2cn(-c3cnc4ccccc4c3)nn2)C[C@@H](C)C(=O)/C=C/C(C)=C/[C@@H]1CN1CCCCCCC1`, the MIC in [1] turned out to be 8 µg/mL (≈ 8.06 µM); in assay [2], 8 µg/mL (≈ 8.06 µM); in [5], 1 µg/mL (≈ 1.01 µM); in assay [7] it was 16 µg/mL (≈ 16.1 µM).

Regarding `CCCCN(CCCC)C[C@H]1/C=C(C)/C=C/C(=O)[C@H](C)C[C@H](CCN(Cc2ccc(Br)cc2)Cc2cn(-c3cnc4ccccc4c3)nn2)[C@H](O[C@@H]2O[C@H](C)[C@@H](O)[C@H](N(C)C)[C@H]2O)[C@@H](C)[C@H](O)CC(=O)O[C@@H]1CC`, the MIC in [1] worked out at 8 µg/mL (≈ 7.36 µM); in assay [2], 16 µg/mL (≈ 14.7 µM); in assay [5] it was 1 µg/mL (≈ 0.92 µM); in [7], 16 µg/mL (≈ 14.7 µM).

As to `CC[C@H]1OC(=O)C[C@@H](O)[C@H](C)[C@@H](O[C@@H]2O[C@H](C)[C@@H](O)[C@H](N(C)C)[C@H]2O)[C@@H](CCN(Cc2cn(-c3cnc4ccccc4c3)nn2)Cc2cccs2)C[C@@H](C)C(=O)/C=C/C(C)=C/[C@@H]1CO`, the MIC in assay [1] was found to be 16 µg/mL (≈ 17.7 µM); in [2], 16 µg/mL (≈ 17.7 µM); in assay [5] it was 0.125 µg/mL (≈ 0.138 µM); in assay [7] it was 32 µg/mL (≈ 35.4 µM).
